In one series the target is T1, horse serum BChE (Equus caballus, UniProt P81908).
T1 construct: horse serum BChE (EC 3.1.1.8); purchased Sigma-Aldrich Co; host or cells: horse serum
In words: Kinetic analysis of BChE inhibition (Dixon and Lineweaver−Burk plots). It counts as biochemical. To be noted: for Inhibition type BChE: Dixon and Lineweaver−Burk plots. As for the experimental part: (§1) The Ki was determined by interpretation of the Dixon plot, with the value of the x-axis intercept taken as −Ki.
Dixon plots for BChE inhibition by pterosin derivatives. (2S,3R)-Pterosin C (A), (2R,3R)-pterosin C (B), and (2R)-pterosin B (C) were tested in the presence of substrate concentrations of 0.2 mM (●), 0.4 mM (○), and 0.8 mM (▼).
Dixon plots for BChE inhibition by pteroside derivatives. (2R)-pteroside B (A), (2R,3R)-pteroside C (B), and (3S)-pteroside D (C) were tested in the presence of substrate concentrations of 0.2 mM (●), 0.4 mM (○), and 0.8 mM (▼). Lineweaver-Burk plots for BChE inhibition were generated with inhibitor concentrations of 0 µM (Δ), 4 µM (▼), 20 µM (○), and 100 µM (●) for (2R)-pteroside B (D); 0 µM (Δ), 0.8 µM (▼), 4 µM (○), and 20 µM (●) for (2R,3R)-pteroside C (E) and (3S)-pteroside D (F).

For series [1], the system named is SH-SY5Y human neuroblastoma. In words: MTT cytotoxicity assay, SH-SY5Y. It counts as cell-based. The following applies: 24 h. As for the experimental part: (§2) Cytotoxicity was assessed using the MTT assay. Briefly, the cells were seeded into a 96-well plate at a density of 1×10^5 cells per well in 100 µL of corresponding media and incubated at 37 °C in an incubator under 5% CO2 tension for 24 h. The culture media were then replaced with 100 µL of fresh serum-free media in the presence of varied concentrations of pterosin derivatives, and cells were incubated for an additional 24 h. The control was treated with an equal amount of DMSO present in the assay for a 5 mM concentration. Then, 100 µL of MTT solution (0.5 mg/mL in Phosphate Buffered Saline (PBS)) was added to each culture. To measure the proportion of surviving cells, the media were replaced with 100 µL of DMSO 2 h after the administration of MTT solution. The absorbance was measured at 570 nm using a spectrophotometric plate reader (Molecular Devices, Sunnyvale, CA, USA).

The subject of the next series is C6 rat glial cells. In words: MTT cytotoxicity assay, C6. It counts as cell-based. To be noted: 24 h. As for the experimental part:
as §2
(In general: Tetrazolium assays rely on reduction of a dye to a coloured formazan, in cell work by metabolically active cells.)

Series [2] has as its system Mouse neuroblastoma N2a cells stably overexpressing the human APP Swedish mutation (APPswe). In words: Aβ40/Aβ42 sandwich ELISA of conditioned media of APPswe neuroblastoma cells. It counts as cell-based. As for the experimental part:
Mouse neuroblastoma N2a cells stably overexpressing the human APP Swedish mutation (APPswe) were kindly provided by Dr. Takeshi Iwatsubo (The University of Tokyo). […] To analyze the effect of (2R)-pterosin B or (2R,3R)-pteroside C on APP metabolites, APPswe-containing neuroblastoma cells were cultured up to confluency in DMEM that contained 10 mM butyric acid to drive protein expression in the presence of 12, 60, 250, and 500 μM of (2R)-pterosin B or (2R,3R)-pteroside C for 24 h. β-SI (10 µM) was used as a positive control. The negative control included cells cultured in the absence of test compounds. […] Conditioned medium was collected in 0.5 mM phenylmethylsulfonyl fluoride and subjected to ELISA for the 40-residue peptide Aβ (1–40) (Aβ40) or the 42-residue Aβ (1–42) (Aβ42).
Aβ40 and Aβ42 ELISA was performed according to the manufacturer’s instructions. The assay was conducted in a microplate coated with anti-human Aβ35-40 mouse IgG (1A10) or anti-human Aβ38-42 mouse IgG (44A3), respectively. The microplate was added with 100 μL conditioned media, incubated overnight at 4 °C, and then washed with washing buffer. Horseradish peroxidase-conjugated anti-human Aβ11-28 mouse IgG (82E1) was added into each well, incubated at 4 °C for 1 h, and washed with washing buffer. 3,3′,5,5′-Tetramethylbenzidine as a chromogenic substrate was added to each well and incubated for 30 min. The reaction was stopped by the addition of 100 μL stop solution, and the absorbance at 450 nm was measured using a model 680 microplate reader (Bio-Rad, Hercules, CA).
Background: An ELISA detects its analyte on a solid surface through an enzyme-linked reagent.

Series [3] has as its system NIH3T3 mouse embryo fibroblasts. In words: MTT cytotoxicity assay, NIH3T3. It counts as cell-based. To be noted: 24 h. As to the method: as §2
For series [4], the target named is BACE1 (human recombinant β-secretase) (Homo sapiens, UniProt P56817). In words: In vitro BACE1 FRET enzyme assay. It counts as biochemical. The following applies: mean ± S.D. of three experiments. An excerpt:
BACE1 (human recombinant β-secretase) ([…]) and the BACE1 FRET (fluorescence resonance energy transfer) assay kit Red were purchased from ThermoFisher Scientific (P2985; Waltham, MA, USA). […] For the cell culture experiment, Dulbecco’s modified Eagle’s medium (DMEM), Opti-MEM, fetal bovine serum (FBS), and penicillin/streptomycin were obtained from Capricorn Scientific (Ebsdorfergrund, Germany). β-secretase inhibitor III (β-SI) was purchased from Calbiochem (Darmstadt, Germany). The protease inhibitor mixture (a mixture of AEBSF, pepstatin A, E-64, bestain, leupeptin, and aprotinin) was purchased from Sigma-Aldrich (St. Louis, MO, USA). Enzyme-linked immunosorbent assay (ELISA) kits for Aβ40 and Aβ42 were obtained from IBL (Kunma, Japan). All chemicals and solvents used were reagent grade, purchased from commercial sources, and used as received.
The BACE1 FRET assay was carried out according to the manufacturer’s instructions with slight modifications as previously described. The assay was performed in a […] black plate using a multi-pipette.

Another series concerns the target T2, Electric eel AChE (Electrophorus electricus, UniProt O42275).
T2 construct: purchased Sigma-Aldrich Co
In words: Kinetic analysis of AChE inhibition (Dixon and Lineweaver−Burk plots). It counts as biochemical. The following applies: for Inhibition type AChE: Dixon and Lineweaver−Burk plots. As to the method: as §1
Dixon plots for AChE inhibition by pterosin derivatives. (2S,3R)-Pterosin C (A), (2R,3R)-pterosin C (B), and (2R)-pterosin B (C) were tested in the presence of substrate concentrations of 0.1 mM (●), 0.3 mM (○), and 0.6 mM (▼). Lineweaver-Burk plots for AChE inhibition were generated with inhibitor concentrations of 0 µM (Δ), 4 µM (▼), 20 µM (○), and 100 µM (●) for (2S,3R)-pterosin C (D) and (2R,3R)-pterosin C (E); and 0 µM (Δ), 2 µM (▼), 10 µM (○), and 50 µM (●) for (2R)-pterosin B (F).
Dixon plots for AChE inhibition by pteroside derivatives. (2R)-pteroside B (A), (2R,3R)-pteroside C (B), and (3S)-pteroside D (C) were tested in the presence of substrate concentrations of 0.1 mM (●), 0.3 mM (○), and 0.6 mM (▼). Lineweaver-Burk plots for AChE inhibition were generated with inhibitor concentrations of 0 µM (Δ), 0.8 µM (▼), 4 µM (○), and 20 µM (●) for (2R)-pteroside B (D), (2R,3R)-pteroside C (E), and (3S)-pteroside D (F).

For series [5], the system named is SH-SY5Y, C6, NIH3T3 and B16F10 cell lines. In words: MTT cytotoxicity assay, all cell lines tested. It counts as cell-based. As for the experimental part: as §2

Here are results for two molecules from PMC6372667 (Experimental & Molecular Medicine, 2019).

Read-outs that look alike come from different tables or passages of the source.

T1 sequence (P81908 whole entry): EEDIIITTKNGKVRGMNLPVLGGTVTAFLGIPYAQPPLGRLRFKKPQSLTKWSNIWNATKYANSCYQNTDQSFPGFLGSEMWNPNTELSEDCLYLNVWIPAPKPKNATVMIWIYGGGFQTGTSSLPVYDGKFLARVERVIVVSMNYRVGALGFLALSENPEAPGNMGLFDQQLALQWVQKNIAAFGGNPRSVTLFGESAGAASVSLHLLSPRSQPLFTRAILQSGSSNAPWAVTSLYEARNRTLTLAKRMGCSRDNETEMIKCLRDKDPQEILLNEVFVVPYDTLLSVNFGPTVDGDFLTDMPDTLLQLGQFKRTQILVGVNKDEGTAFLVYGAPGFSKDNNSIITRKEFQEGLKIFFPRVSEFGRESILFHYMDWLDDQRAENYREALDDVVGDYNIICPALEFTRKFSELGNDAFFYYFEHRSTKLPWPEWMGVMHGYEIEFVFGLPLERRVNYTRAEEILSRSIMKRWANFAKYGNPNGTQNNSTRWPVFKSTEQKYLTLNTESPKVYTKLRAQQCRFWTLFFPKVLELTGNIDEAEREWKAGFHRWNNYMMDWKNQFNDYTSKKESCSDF
T2 sequence (O42275 24-633): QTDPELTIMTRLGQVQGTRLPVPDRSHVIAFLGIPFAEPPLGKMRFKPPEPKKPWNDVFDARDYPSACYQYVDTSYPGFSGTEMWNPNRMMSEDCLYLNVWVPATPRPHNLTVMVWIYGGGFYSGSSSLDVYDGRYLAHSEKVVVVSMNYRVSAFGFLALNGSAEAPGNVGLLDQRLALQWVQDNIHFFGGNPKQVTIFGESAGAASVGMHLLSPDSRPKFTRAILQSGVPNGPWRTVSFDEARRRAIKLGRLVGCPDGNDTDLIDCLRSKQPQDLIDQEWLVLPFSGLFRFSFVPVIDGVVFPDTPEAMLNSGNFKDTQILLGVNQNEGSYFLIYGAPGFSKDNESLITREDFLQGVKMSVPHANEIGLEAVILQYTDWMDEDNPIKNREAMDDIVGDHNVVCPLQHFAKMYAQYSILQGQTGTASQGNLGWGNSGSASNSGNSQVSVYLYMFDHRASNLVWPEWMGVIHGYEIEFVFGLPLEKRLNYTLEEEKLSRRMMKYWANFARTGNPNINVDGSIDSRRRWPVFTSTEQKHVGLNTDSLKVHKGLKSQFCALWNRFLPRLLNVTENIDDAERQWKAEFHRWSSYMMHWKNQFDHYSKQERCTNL
Sequence of BACE1 (human recombinant β-secretase) (P56817 46-501): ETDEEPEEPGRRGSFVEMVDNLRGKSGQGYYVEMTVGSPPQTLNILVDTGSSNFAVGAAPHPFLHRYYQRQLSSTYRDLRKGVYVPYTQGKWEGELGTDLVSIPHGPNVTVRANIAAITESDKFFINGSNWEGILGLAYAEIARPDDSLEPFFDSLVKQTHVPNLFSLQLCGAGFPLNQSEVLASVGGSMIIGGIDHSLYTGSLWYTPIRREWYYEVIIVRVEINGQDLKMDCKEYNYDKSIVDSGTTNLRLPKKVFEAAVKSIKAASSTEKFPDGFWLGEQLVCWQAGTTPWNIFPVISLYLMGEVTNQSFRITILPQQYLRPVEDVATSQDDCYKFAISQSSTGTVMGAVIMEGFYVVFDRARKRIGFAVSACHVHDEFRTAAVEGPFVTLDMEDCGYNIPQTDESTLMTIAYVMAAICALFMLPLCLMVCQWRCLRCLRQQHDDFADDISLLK

On to `Cc1cc2c(c(C)c1CCO)C(=O)[C@H](C)C2` [(2R)-Pterosin B, (2R)-pterosin B], for which, at horse serum BChE, the Ki was 53.5 µM and the “Inhibition type BChE” value was “Noncompetitive”. Besides, the “LD50 Based on MTT Assay, SY-SY5Y” value in series [1] is reported as >5,000 µM. In addition, the “LD50 Based on MTT Assay, C6” value with C6 rat glial cells is on record as >5,000 µM. Further, the “Secretion of Aβ peptides, effect” value in series [2] (500 μM) is reported as “significantly decreased”. Moreover, the “Secreted Aβ40 peptides, effect” value in series [2] (500 µM, 24 h) is given as “significantly decreased”. Further, in series [2] (500 μM, 24 h, P < 0.01), the “Reduction of Aβ40 peptide secreted into media” value is on record as “up to 50%”. Besides, the “LD50 Based on MTT Assay, NIH3T3” value in series [3] is >5,000 µM. Also, the IC50 in series [4] amounted to 29.6 ± 3.5 µM. Moreover, at Electric eel AChE, the affinity, expressed as Ki, was 12.1 µM and the “Inhibition type AChE” value is “Mixed-type”. Besides, the “LD50, cell lines tested” value in series [5] is recorded as “above 5 mM”.

Turning to `Cc1cc2c(c(C)c1CCOC1OC(CO)C(O)C(O)C1O)C(=O)C(C)C2O` [(2R,3R)-Pteroside C, (2R,3R)-pteroside C], on horse serum BChE, the “Inhibition type BChE” value was “Mixed-type”. Besides, the Ki turned out to be 9.62 µM on horse serum BChE (determined by Dixon plot, read-out: Ki BChE) and 8.13 µM at Electric eel AChE (determined by Dixon plot, read-out: Ki AChE). The “LD50 Based on MTT Assay, SY-SY5Y” value in series [1] is >5,000 µM. For the same molecule, the “LD50 Based on MTT Assay, C6” value in the series with C6 rat glial cells is recorded as >5,000 µM. Also, the “Secretion of Aβ peptides, effect” value in series [2] (500 μM) is “significantly decreased”. Further, in series [2] (500 µM, 24 h, P < 0.05), the “Secreted Aβ42 peptide, effect” value is listed as “significantly decreased”. Moreover, the “LD50 Based on MTT Assay, NIH3T3” value in series [3] is recorded as >5,000 µM. The IC50 in series [4] stood at 9.74 ± 1.9 µM. Also, on Electric eel AChE, the “Inhibition type AChE” value is “Mixed-type”. Further, the “LD50, cell lines tested” value in series [5] was “above 5 mM”.

For orientation: Ki means a measure of affinity in units of concentration, obtained from inhibition or displacement. The term IC50 denotes the concentration needed to halve the response being measured.
